Marks after values point to notes of the source that are not given here. Where no end group is shown, it is not given here.
Assays:
[1] = tested on: LPS-induced sepsis model; test: Murine LPS-induced sepsis / liver injury model; format: in vivo, C57BL/6 mice; conditions: mice
Description: Male C57BL/6 mice (6–8 weeks of age) were purchased from Charles River (Beijing, China). During the experiments, mice were housed in a specific-pathogen-free (SPF) environment with a temperature of 22 ± 1 °C and a relative humidity of 55 ± 10%. All the animal experiments were conducted with the approval of the Animal Care and Use Committee of China Agricultural University.
The mice were randomly divided into five groups of 12: control, LPS (E. coli O111: B4, Sigma-Aldrich, St. Louis, MO, USA), DEFB126 + LPS, TP5 + LPS, and DTP + LPS. The corresponding peptide (10 mg/kg) was injected intraperitoneally during the pretreatment stage. The control group was synchronized with the LPS group by injecting an equal amount of saline.
During the first 7 days of the experiment, each group received the above treatments once a day. On day 7, the LPS model group and the peptide pretreatment groups (DEFB126 + LPS, TP5 + LPS, and DTP + LPS) were injected intraperitoneally with 20 mg/kg of LPS to establish a sepsis model. The control group was injected with an equal volume of saline. Sixteen hours after the LPS injection, the mice were euthanized, and liver tissues and blood samples were collected. The serum was then separated by centrifugation and stored at −80 °C for measurement.
Mouse liver tissues were fixed with 4% paraformaldehyde, embedded in paraffin, and sliced continuously on a rotary slicer (Leica, RM2235, Nußloch, Germany) at a thickness of 5 μm. After dewaxing and rehydration, the tissues were subjected to Hematoxylin-Eosin (H&E) contrast staining. LPS-induced liver injury was evaluated according to a previous study. The liver injury score was graded on a 0- to 3-point scale: 0, no injury; 1, mild injury with cytoplasmic vacuolation; 2, moderate to severe injury consisting of extensive loss of intercellular borders and nuclear pyknosis; and 3, severe necrosis consisting of liver hemorrhage and neutrophil infiltration.
The levels of tumor necrosis factor (TNF)-α, interleukin (IL)-6, and IL-1β in the serum of mice were detected using commercial ELISA kits (eBioscience, San Diego, CA, USA). Commercial reagent kits (Nanjing Jiancheng Bioengineering Institute, Nanjing, China) were used to detect the levels of serum alanine amino transferase (ALT) and aspartate amino transferase (AST).

[2] = LPS neutralization, Chromogenic End-point Tachypleus Amebocyte Lysate (CE TAL) assay; format: biochemical, E. coli; conditions: LPS 1.0 U/mL, peptide 0 to 128 μg/mL, 15 min at 37 °C, OD540; mean ± SD of 3 independent experiments
Description: The LPS-neutralizing ability of the peptides was assessed through a quantitative Chromogenic End-point Tachypleus Amebocyte Lysate (CE TAL) assay (Xiamen Bioendo Technology Co., Xiamen, China). LPS (final concentration 1.0 U/mL; E. coli, O55:B5) was incubated with different concentrations of the peptides (final concentration 0 to 128 μg/mL) for 15 min at 37 °C. Then, the mixtures were incubated with TAL assay reagent at 37 °C for 6 min, and the optical density at 540 nm was measured.

[3] = tested on: RAW264.7 cells; test: ROS generation (DCFH2-DA, fluorescence microscopy and flow cytometry); format: cell-based; conditions: RAW264.7, LPS 100 ng/mL 1 h, then DTP 12 h
Description: RAW264.7 cells (1 × 10^5 cells/mL cell density) were incubated with LPS (100 ng/mL) at 37 °C for 1 h. After that, cells were treated with DTP at 37 °C for 12 h. The cells were then stained with 5 μM DCFH2-DA for 30 min at 37 °C in the dark. The cells were then washed extensively with PBS before analysis by fluorescence microscope and flow cytometry.

[4] = tested on: phosphorylation of IKK-β, IκB-α and NF-κB; test: Western blot of NF-κB signaling pathway; format: cell-based; conditions: LPS-stimulated
Description: Samples were fractionated into cytoplasmic and nuclear components using the NR-PER Nuclear and Cytoplasmic Protein Extraction Kit (Thermo Fisher Scientific Inc., Waltham, MA, USA). Protein levels in each fraction were determined via a bicinchoninic acid (BCA) assay (KeyGEN Biotech, Nanjing, China). Subsequently, protein fractions were separated by 10% SDS-polyacrylamide gel electrophoresis and transferred to methanol-activated PVDF membranes (Bio-Rad, Hercules, CA, USA). After membrane transfer, the membranes were blocked with 5% skimmed milk, followed by incubation with phosphorylated antibodies: p-IKK-β, p-IкB-α, p-NF-кB (p-p65), and GAPDH (Santa Cruz), with shaking overnight at 4 °C. After TBST washing, the membranes were incubated with HRP-labeled species-matched secondary antibody (HuaAn Biologicals, Hangzhou, China) for 60 min at room temperature. The density of specific proteins was quantified using the ChemiDoc MP imaging system (Bio-Rad, Hercules, CA, USA).

[5] = tested on: RAW264.7 macrophages; test: CCK-8 cell viability assay; conditions: 24 h; for cell survival rate: RAW264.7, 10 μg/mL peptide, CCK-8, OD450
Description: RAW 264.7 cells were maintained in DMEM medium containing 10% (v/v) fetal bovine serum and 1% (v/v) penicillin-streptomycin at 37 °C, 5% CO2.
RAW264.7 cells (3 × 10^4 cells/mL) were plated in 96-well plates in 100 μL DMEM overnight and then cultured in fresh medium containing a 2-fold concentration of peptide for another 24 h. Add 10 μL of CCK-8 solution to each well and incubate for 4 h away from light. Then, the optical density at 450 nm was measured using a microplate reader. Cell viability was determined byCell viability (%) = (OD450 (sample)/OD450 (control)) × 100%(1) where OD450 (sample) is the absorbance at 450 nm of the cells with peptides treated and OD450 (control) is the absorbance at 450 nm of the cells without peptides treated.

[6] = Ex vivo stability in plasma (HPLC); conditions: rat plasma, peptide 10 µg/mL, 37 °C, linear regression of log concentration-time, mean ± SD of 3 biological replicates
Description: (§1) The above peptide solutions were incubated at 37 °C for varying lengths of time and then immediately transferred to pre-cooled test tubes containing 1 mL of acidic acetone (hydrochloric acid/acetone/H2O, v/v/v 1:40:5) to terminate the reaction. The concentration of the hydrochloric acid solution before dilution is 50 mM. The precipitate was subsequently separated by centrifugation at 20,000× g for 20 min at 4 °C. The obtained precipitates were dried in vacuo and then dissolved in 0.5 mL of 1 M acetic acid. Peptide analysis was conducted according to the protocol for the study of TP5 using HPLC [2]. Peptide half-lives were obtained by fitting a linear regression model based on logarithmic concentration-time.

[7] = in vitro; conditions: rat, plasma
Description: as §1

[8] = biological target: Toll-like receptor 4/myeloid differentiation factor 2 (TLR4/MD-2) complex (UniProt Q9QUK6 26-835; Q9JHF9 19-160, The source, species and construct of the SPR protein are not stated. Mouse is inferred from the docking receptor (PDB 2Z64) and the mouse models. Limits by convention: TLR4 extracellular domain and ma); test: SPR; Biacore X100, CM5 chip, amine coupling; running buffer PBS with 0.05% Tween 20, 30 μL/min; peptide gradient 0, 1.25, 2.5, 5 and 10 mM as printed; 1:1 binding model; legend and results: TLR4/MD-2 immobilised and DTP flowed over (the methods say DTP was immobilised); conditions: both partners purified
[9] = ELISA, peptide 10 mg/kg i.p. pretreatment, LPS, 16 h
[10] = peptide 10 mg/kg i.p. once daily pretreatment, then LPS i.p., 16 h after LPS
[11] = peptide 10 mg/kg i.p. pretreatment, LPS, 16 h

Chain of Toll-like receptor 4/myeloid differentiation factor 2 (TLR4/MD-2) complex (Q9QUK6 26-835, chain 1 of 2): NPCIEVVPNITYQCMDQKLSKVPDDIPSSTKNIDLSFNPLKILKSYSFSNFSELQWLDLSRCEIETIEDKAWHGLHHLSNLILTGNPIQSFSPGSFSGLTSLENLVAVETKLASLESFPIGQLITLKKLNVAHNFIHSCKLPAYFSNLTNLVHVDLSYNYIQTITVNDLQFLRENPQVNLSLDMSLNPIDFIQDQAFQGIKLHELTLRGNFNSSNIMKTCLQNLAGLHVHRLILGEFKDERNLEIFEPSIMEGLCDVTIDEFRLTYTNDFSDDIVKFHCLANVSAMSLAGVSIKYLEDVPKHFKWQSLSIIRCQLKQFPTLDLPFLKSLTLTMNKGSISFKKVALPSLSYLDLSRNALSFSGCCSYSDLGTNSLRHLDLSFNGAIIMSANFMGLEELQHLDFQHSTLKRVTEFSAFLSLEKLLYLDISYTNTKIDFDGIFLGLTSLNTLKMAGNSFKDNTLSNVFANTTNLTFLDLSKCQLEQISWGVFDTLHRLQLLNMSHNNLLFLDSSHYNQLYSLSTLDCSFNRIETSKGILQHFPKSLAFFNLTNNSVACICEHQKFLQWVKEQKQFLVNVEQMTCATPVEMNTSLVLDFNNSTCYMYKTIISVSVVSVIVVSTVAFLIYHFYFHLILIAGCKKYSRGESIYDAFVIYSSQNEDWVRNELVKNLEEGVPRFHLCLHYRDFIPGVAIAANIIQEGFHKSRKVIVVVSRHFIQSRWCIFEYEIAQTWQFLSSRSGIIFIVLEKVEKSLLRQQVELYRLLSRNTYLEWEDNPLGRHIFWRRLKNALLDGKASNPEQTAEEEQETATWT
Chain of Toll-like receptor 4/myeloid differentiation factor 2 (TLR4/MD-2) complex (Q9JHF9 19-160, chain 2 of 2): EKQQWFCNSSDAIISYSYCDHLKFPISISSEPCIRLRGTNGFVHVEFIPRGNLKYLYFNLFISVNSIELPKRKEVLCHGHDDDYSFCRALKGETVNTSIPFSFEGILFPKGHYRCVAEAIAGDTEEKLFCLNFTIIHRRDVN

Molecule: NWYVKKCLNDVGICKKKCKPEEMHVKNGWAMCGKQRDCCRKDVY (cysteines drawn unpaired) [DTP]
- serum IL-1β level [1, 9]: significantly decreased
- serum IL-6 level [1, 9]: significantly decreased
- serum TNF-α level [1, 9]: significantly decreased
- liver injury score ([1]; H&E, 0- to 3-point scale, peptide 10 mg/kg i.p. pretreatment, LPS, 16 h): significantly lower liver injury score than the LPS-treated, TP5-pretreated, and DEFB126-pretreated groups
- serum ALT level [1, 10]: markedly lower than those in the TP5-pretreated group and DEFB126-pretreated group
- serum AST level [1, 10]: markedly lower than those in the TP5-pretreated group and DEFB126-pretreated group
- liver CAT activity [1, 11]: significantly reversed these effects
- liver GSH-Px activity [1, 11]: significantly reversed these effects
- liver SOD activity [1, 11]: significantly reversed these effects
- 50% neutralization rate value [2]: approximately 11.58 ± 2.07 μg/mL
- LPS-induced ROS generation [3]: remarkably attenuated
- LPS-induced phosphorylation of IKK-β, IκB-α and NF-κB [4]: significantly inhibited
- cell survival rate [5]: higher than 80%
- cytotoxicity compared with parental peptides ([5]; RAW264.7, 2-fold series of concentrations, CCK-8): significantly lower than DEFB126 and TP5
- t1/2 in plasma [6]: 349 ± 69.17 ^a min

Molecule: NWYVKKCLNDVGICKKKCKPEEMHVKNGWAMCGKQRDCCVPAD (cysteines drawn unpaired) [DEFB126]
- half-life at 10 µg/mL [7]: 5.41 ± 0.885 h
- cell survival rate [5]: higher than 80%

B1: hybrid peptide DEFB126 (1-39)-TP5 (peptide)
peptide: NWYVKKCLNDVGICKKKCKPEEMHVKNGWAMCGKQRDCCRKDVY
notes: DEFB126 (1-39): residues 21-59 of human β-defensin 126 (111 amino acids); thymopentin (TP5), the core active fragment of thymopoietin, full-length TP5; whether disulfide bonds form is left open by the authors; also called DTP; DTP peptide; source: synthetic peptide (KangLong Biochemistry, 95% purity)
- Kd [8]: 2300 nM
